Experimental data taken from PMC11062899, “De novo development of small cyclic peptides that are orally bioavailable” (Nature Chemical Biology, 2023).
“And” between values parts separate entries of the source, which are not always exact repeats. Equal values may be shown once. Read-outs that look alike come from different tables or passages of the source.

Legend:
[1] = Passive artificial membrane permeability (PAMPA);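 for Permeability% Average: top well sample relative to theoretical equilibrium sample by TIC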
rat α-thrombin = target: T1, rat α-thrombin (Rattus norvegicus, UniProt P18292); assay: Protease inhibition, Ki for rat α-thrombin (fluorogenic substrate Z-Gly-Gly-Arg-AMC); assay type: biochemical; details: for Rat alpha thrombin inhibition, slope normalized to DMSO: replicates R1-R3
T1 construct: rat α-thrombin (Molecular Innovations) were used at final concentrations of 2 nM and 3 nM; purchased Molecular Innovations
How it was run: (§1)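 Inhibition was measured as AMC fluorescence from 50 μM substrate, monitored for 30 min at 25 °C, relative to a peptide-free control. Human and rat enzymes were present at 2 nM and 3 nM final, respectively, in 50 mM Tris-HCl pH 7.4, 150 mM NaCl, 10 mM MgCl2, 1 mM CaCl2. Ki derives from fitted IC50 via Cheng–Prusoff.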

human α-thrombin = human α-thrombin (Homo sapiens, UniProt P00734); assay: Protease inhibition, Ki for human α-thrombin (fluorogenic substrate Z-Gly-Gly-Arg-AMC); assay type: biochemical; details: for Human alpha thrombin inhibition, slope normalized to DMSO: replicates R1-R3
How it was run: as §1

[2] = peptide concentration 1.00E+02 uM
[3] = peptide concentration 1.19E-05 uM
[4] = peptide concentration 1.22E-02 uM
[5] = peptide concentration 1.25E+01 uM
[6] = peptide concentration 1.53E-03 uM
[7] = peptide concentration 1.56E+00 uM
[8] = peptide concentration 1.91E-04 uM
[9] = peptide concentration 1.95E-01 uM
[10] = peptide concentration 2.38E-05 uM
[11] = peptide concentration 2.44E-02 uM
[12] = peptide concentration 2.50E+01 uM
[13] = peptide concentration 3.05E-03 uM
[14] = peptide concentration 3.12E+00 uM
[15] = peptide concentration 3.81E-04 uM
[16] = peptide concentration 3.91E-01 uM
[17] = peptide concentration 4.77E-05 uM
[18] = peptide concentration 4.88E-02 uM
[19] = peptide concentration 5.00E+01 uM
[20] = peptide concentration 6.10E-03 uM
[21] = peptide concentration 6.25E+00 uM
[22] = peptide concentration 7.63E-04 uM
[23] = peptide concentration 7.81E-01 uM
[24] = peptide concentration 9.54E-05 uM
[25] = peptide concentration 9.77E-02 uM

O=C1C[C@H]2CCCN2C(=O)[C@H](Cc2ccccc2)NC(=O)[C@@H](NC(=O)c2ccc(Cl)s2)CC=CCCCN1 [compound 40]
PAMPA permeability: % permeability ([1]; 50 μM, 12–18 h, acceptor concentration relative to equilibrium): 42 ± 11%
Permeability% (single replicates R1–R3) ([1]; 50 μM, 13 h (Fig. 5d)): 47.12% and 50.47% and 29.38%
Permeability% Average ([1]; 50 μM, 13 h (Fig. 5d)): 42.3%
Papp at 50 μM ([1]; PAMPA, pH 7.4): 4.9 ×10⁻⁶ cm/s
Ki (rat α-thrombin; average of R1-R3, read-out: Rat alpha thrombin inhibition, Ki Average): 1480 nM
Rat alpha thrombin inhibition, slope normalized to DMSO (rat α-thrombin; [2]): 8.5 and 10.5 and 9.7
Rat alpha thrombin inhibition, slope normalized to DMSO (rat α-thrombin; [3]): 107.2 and 105.4 and 103.1
Rat alpha thrombin inhibition, slope normalized to DMSO (rat α-thrombin; [4]): 105.9 and 100.2 and 97.5
Rat alpha thrombin inhibition, slope normalized to DMSO (rat α-thrombin; [5]): 28.9 and 25.6 and 11.1
Rat alpha thrombin inhibition, slope normalized to DMSO (rat α-thrombin; [6]): 104.7 and 100.1 and 100.7
Rat alpha thrombin inhibition, slope normalized to DMSO (rat α-thrombin; [7]): 60.2 and 60.7 and 63.3
Rat alpha thrombin inhibition, slope normalized to DMSO (rat α-thrombin; [8]): 101.0 and 93.6 and 80.4
Rat alpha thrombin inhibition, slope normalized to DMSO (rat α-thrombin; [9]): 77.4 and 91.6 and 90.6
Rat alpha thrombin inhibition, slope normalized to DMSO (rat α-thrombin; [10]): 99.9 and 95.1 and 101.1
Rat alpha thrombin inhibition, slope normalized to DMSO (rat α-thrombin; [11]): 106.7 and 94.6 and 110.9
Rat alpha thrombin inhibition, slope normalized to DMSO (rat α-thrombin; [12]): 3.6 and 15.7 and 17.5
Rat alpha thrombin inhibition, slope normalized to DMSO (rat α-thrombin; [13]): 104.4 and 102.5 and 99.7
Rat alpha thrombin inhibition, slope normalized to DMSO (rat α-thrombin; [14]): 54.9 and 53.5 and 52.8
Rat alpha thrombin inhibition, slope normalized to DMSO (rat α-thrombin; [15]): 103.0 and 99.2 and 100.1
Rat alpha thrombin inhibition, slope normalized to DMSO (rat α-thrombin; [16]): 58.4 and 57.7 and 87.4
Rat alpha thrombin inhibition, slope normalized to DMSO (rat α-thrombin; [17]): 109.2 and 85.2 and 99.3
Rat alpha thrombin inhibition, slope normalized to DMSO (rat α-thrombin; [18]): 100.3 and 95.3 and 106.1
Rat alpha thrombin inhibition, slope normalized to DMSO (rat α-thrombin; [19]): 16.0 and 15.4 and 14.7
Rat alpha thrombin inhibition, slope normalized to DMSO (rat α-thrombin; [20]): 102.6 and 94.5 and 101.1
Rat alpha thrombin inhibition, slope normalized to DMSO (rat α-thrombin; [21]): 50.1 and 39.5 and 38.6
Rat alpha thrombin inhibition, slope normalized to DMSO (rat α-thrombin; [22]): 102.8 and 105.9 and 89.3
Rat alpha thrombin inhibition, slope normalized to DMSO (rat α-thrombin; [23]): 79.5 and 71.2 and 76.6
Rat alpha thrombin inhibition, slope normalized to DMSO (rat α-thrombin; [24]): 103.0 and 96.4 and 84.9
Rat alpha thrombin inhibition, slope normalized to DMSO (rat α-thrombin; [25]): 100.1 and 93.3 and 83.6
IC50 (rat α-thrombin; single replicates R1-R3, read-out: Rat alpha thrombin inhibition, IC50): 2600 nM and 2780 nM and 2670 nM
Ki (rat α-thrombin; single replicates R1-R3, read-out: Rat alpha thrombin inhibition, Ki): 1.44 µM (2×) and 1.54 µM (2×) and 1.48 µM (2×)
Ki (human α-thrombin; average of R1-R3, read-out: Human alpha thrombin inhibition, Ki Average): 3780 nM
Human alpha thrombin inhibition, slope normalized to DMSO (human α-thrombin; [2]): 24.9 and 25.0 and 20.5
Human alpha thrombin inhibition, slope normalized to DMSO (human α-thrombin; [3]): 103.5 and 123.5 and 102.0
Human alpha thrombin inhibition, slope normalized to DMSO (human α-thrombin; [4]): 106.6 and 86.5 and 61.9
Human alpha thrombin inhibition, slope normalized to DMSO (human α-thrombin; [5]): 42.7 and 42.4 and 47.7
Human alpha thrombin inhibition, slope normalized to DMSO (human α-thrombin; [6]): 60.4 and 64.9 and 105.1
Human alpha thrombin inhibition, slope normalized to DMSO (human α-thrombin; [7]): 69.9 and 77.6 and 68.9
Human alpha thrombin inhibition, slope normalized to DMSO (human α-thrombin; [8]): 105.9 and 100.1 and 65.2
Human alpha thrombin inhibition, slope normalized to DMSO (human α-thrombin; [9]): 62.1 and 70.8 and 60.8
Human alpha thrombin inhibition, slope normalized to DMSO (human α-thrombin; [10]): 104.8 and 103.3 and 108.6
Human alpha thrombin inhibition, slope normalized to DMSO (human α-thrombin; [11]): 60.0 and 97.7 and 99.0
Human alpha thrombin inhibition, slope normalized to DMSO (human α-thrombin; [12]): 33.7 and 37.4 and 37.6
Human alpha thrombin inhibition, slope normalized to DMSO (human α-thrombin; [13]): 90.7 and 95.7 and 101.5
Human alpha thrombin inhibition, slope normalized to DMSO (human α-thrombin; [14]): 61.5 and 74.1 and 46.2
Human alpha thrombin inhibition, slope normalized to DMSO (human α-thrombin; [15]): 102.1 and 112.0 and 80.2
Human alpha thrombin inhibition, slope normalized to DMSO (human α-thrombin; [16]): 89.5 and 72.3
Human alpha thrombin inhibition, slope normalized to DMSO (human α-thrombin; [17]): 107.9 and 97.7 and 98.2
Human alpha thrombin inhibition, slope normalized to DMSO (human α-thrombin; [18]): 58.9 and 84.7 and 96.6
Human alpha thrombin inhibition, slope normalized to DMSO (human α-thrombin; [19]): 23.5 and 29.5 (2×)
Human alpha thrombin inhibition, slope normalized to DMSO (human α-thrombin; [20]): 76.0 and 102.5 and 99.2
Human alpha thrombin inhibition, slope normalized to DMSO (human α-thrombin; [21]): 68.9 and 63.0 and 35.5
Human alpha thrombin inhibition, slope normalized to DMSO (human α-thrombin; [22]): 61.7 and 101.5 and 87.5
Human alpha thrombin inhibition, slope normalized to DMSO (human α-thrombin; [23]): 99.5 and 72.0 and 89.1
Human alpha thrombin inhibition, slope normalized to DMSO (human α-thrombin; [24]): 106.0 and 103.1 and 118.2
Human alpha thrombin inhibition, slope normalized to DMSO (human α-thrombin; [25]): 62.3 and 75.9 and 55.0
